Experiments:
SARS-CoV [1] = assay: Inhibition of human SARS-CoV Toronto-2 in a cell based assay; assay type: functional, organism-based; details: Severe acute respiratory syndrome-related coronavirus
SARS-CoV [2] = assay: Inhibition of human SARS-CoV Toronto-2 at 300 uM in a cell based assay; assay type: functional; details: Severe acute respiratory syndrome-related coronavirus

Row | Structure (SMILES) | EC50 (SARS-CoV [1]) | inhibition at 300 µM (SARS-CoV [2])
1 | O=C(O)c1ccc(/N=C/c2c(O)ccc3oc4c(c23)CCCC4)cc1 | 23 µM | –
2 | O=C(O)c1ccc(NC(=O)c2cccc3c2C2=C(CCCC2)C3=O)cc1 | – | 25%

Source: ChEMBL document CHEMBL1149467, “From genome to drug lead: identification of a small-molecule inhibitor of the SARS virus” (Bioorg Med Chem Lett, 2006)
